Assay results reported in patent US9340809B2, “Microbial conversion of sugar acids and means therein” (VALTION […] TUTKIMUSKESUS, priority 2005, dated 2016).

Experiments:
[1] = biological target: T1, L-galactonic acid dehydratase (Trichoderma reesei, UniProt Q0QWS4); assay: specificity test of L-galactonic acid dehydratase in yeast extract of strain H3350, formation of reducing sugars; format: biochemical, Hypocrea jecorina (Trichoderma reesei); conditions: yeast extract of S. cerevisiae strain H3350 expressing lgd1; formation of reducing sugars followed
T1 construct: made in house; host or cells: Saccharomyces cerevisiae strain H3350 (DSM 17214), crude yeast extract
T1 sequence (Q0QWS4 1-450): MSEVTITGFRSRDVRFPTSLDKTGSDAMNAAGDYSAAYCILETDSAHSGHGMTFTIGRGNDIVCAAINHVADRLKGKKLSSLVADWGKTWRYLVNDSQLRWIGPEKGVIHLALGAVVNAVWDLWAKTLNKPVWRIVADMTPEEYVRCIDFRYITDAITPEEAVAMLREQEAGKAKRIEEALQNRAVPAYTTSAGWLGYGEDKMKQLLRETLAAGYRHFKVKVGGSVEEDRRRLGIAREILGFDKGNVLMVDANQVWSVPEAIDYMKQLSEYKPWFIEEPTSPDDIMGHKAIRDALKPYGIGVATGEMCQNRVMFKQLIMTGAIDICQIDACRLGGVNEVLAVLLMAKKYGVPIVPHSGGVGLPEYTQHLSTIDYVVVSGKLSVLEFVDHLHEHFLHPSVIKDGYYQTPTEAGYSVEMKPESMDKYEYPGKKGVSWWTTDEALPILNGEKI
Excerpt: The resulting vector was then transformed to a strain of Saccharomyces cerevisiae. The resulting S. cerevisiae strain was then disintegrated by vortexing with glass beads and the yeast extract analyzed for L-galactonic acid dehydratase activity. To assay the L-galactonic acid dehydratase activity L-galactonic acid was mixed with the yeast extract and formation of reducing sugars followed using standard protocols. (Bernfeld, P. (1955) “Amylases, α and β,” In: Methods In Enzymology, vol. 1, Colovick S. P., Kaplan, N. O. (eds.) Academic Press NY, pp 149-158).
To test the specificity of the enzyme the yeast extract as described before was mixed with the sugar acids D-gluconic acid, D-arabonic acid, D-xylonic acid, L-gulonic acid and L-galactonic acid. We followed the formation of reducing sugars as described in the example 1.

[2] = biological target: T1, L-galactonic acid dehydratase; assay: conversion of L-galactonic acid by yeast extract of strain H3350, product quantified as 2-keto-3-deoxy sugar acid in a chemical assay; format: biochemical, Hypocrea jecorina (Trichoderma reesei); conditions: after 21 hours; protein concentration of yeast extract 0.15 g/l; initial L-galactonic acid concentration 10 mM
Description: L-galactonic acid was mixed with the yeast extract of strain H3350 as described in example 1. The reaction product was identified as a 2-keto-3-deoxy sugar acid in a chemical assay and quantified as described by Buchanan et al. (1999) Biochem. J., 343:563-570. The protein concentration of the yeast extract in the reaction medium was 0.15 g/l and the initial L-galactonic acid concentration 10 mM. After 21 hours 1.04 mM of L-threo-3-deoxy-hexulosonic acid was formed.

Row | SMILES | enzyme activity with the sugar acid as substrate [1] | L-threo-3-deoxy-hexulosonic acid formed [2] [mM]
1 | O=C(O)[C@H](O)[C@@H](O)[C@H](O)[C@H](O)CO [D-gluconic acid] | does not exhibit activity | 
2 | O=C(O)[C@@H](O)[C@H](O)[C@H](O)CO [D-arabonic acid] | Activity was observed | 
3 | O=C(O)[C@H](O)[C@@H](O)[C@H](O)CO [D-xylonic acid] | does not exhibit activity | 
4 | O=C(O)[C@@H](O)[C@H](O)[C@H](O)[C@@H](O)CO [L-galactonic acid] | Activity was observed | 1.04
